Reference: patent US20020037872A1, “N6 heterocyclic 5' modified adenosine derivatives” (CV Therapeutics, Inc., priority 1999, published 2002)
Where two headings read alike, the source gives them in different places.

Key:
A1 receptor = target: T1, A1 receptor (Mesocricetus auratus, UniProt A0A1U8BVR4); assay: Competitive binding assay, DDT1 cell membranes, [3H]CCPA; design: species or system hamster; details: [3H]CCPA 2 nM
T1 construct: endogenous in cells; host or cells: DDT1 (DDT1 MF-2) hamster vas deferens smooth muscle cells
T1 sequence (A0A1U8BVR4 1-326): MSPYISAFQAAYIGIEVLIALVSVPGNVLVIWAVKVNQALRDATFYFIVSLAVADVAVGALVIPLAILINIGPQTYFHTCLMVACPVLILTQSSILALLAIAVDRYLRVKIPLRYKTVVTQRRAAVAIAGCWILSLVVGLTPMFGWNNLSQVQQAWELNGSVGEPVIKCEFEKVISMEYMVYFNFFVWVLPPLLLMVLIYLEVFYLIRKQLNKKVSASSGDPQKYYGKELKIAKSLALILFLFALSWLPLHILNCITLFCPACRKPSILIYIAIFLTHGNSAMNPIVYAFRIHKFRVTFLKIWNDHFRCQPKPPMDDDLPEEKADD
Description: Cells were subcultured twice weekly by dispersion in Hank's Balanced Salt Solution (HBSS) without the divalent cations and containing 1 mM EDTA. The cells were then seeded in growth medium at a density of 1.2×10^5 cells per plate and experiments were performed 4 days later at approximately one day preconfluence.
(§1) Attached cells were washed twice with HBSS (2×10 ml), scraped free of the plate with the aid of a rubber policeman in 5 ml of 50 mM Tris-HCI buffer pH 7.4 at 4° C. and the suspension homogenized for 10 s. The suspension was then centrifuged at 27,000×g for 10 min. The pellet was resuspended in homogenization buffer by vortexing and centrifuged as described above. The final pellet was resuspended in 1 vol of 50 mM Tris-HCI buffer pH 7.4 containing 5 mM MgCl2 for A1 AdoR assays. For the [^35S]GTPγS binding assay the final pellet was resuspended in 50 mM Tris-HCI pH 7.4 containing 5 mM MgCl2, 100 mM NaCl and 1 mM dithiothreitol. This membrane suspension was then placed in liquid nitrogen for 10 min, thawed and used for assays.
Competitive Binding Assay Pig striatum were prepared by homogenation in 50 mM Tris buffer (5× volume of tissue mass pH=7.4). After centrifilgation at 19,000 rpm for 25 minutes at 4° C., the supernatant was discarded, and the process was repeated twice. Compositions of this invention were assayed to determine their affinity for the A1 receptor in a pig striatum membrane prep or a DDT, membrane prep. Briefly, 0.2 mg of pig striatal membranes or DDT, cell membranes were treated with adenosine deaminase and 50 mM Tris buffer (pH=7.4) followed by mixing. To the pig membranes was added 2 μL of serially diluted DMSO stock solution of the compounds of this invention at concentrations ranging from 100 microM to 10 nM. The control received 2 microL of DMSO alone, then the antagonist [^3H] 8-cyclopentylxanthine (CPX) for pig striatum or the agonist [^3H] 2-chloro-6-cyclopentyladenosine (CCPA) for DDT, membranes in Tris buffer (50 mnM, pH of 7.4) was added to achieve a final concentration of 2 nM. After incubation at 23 C for 2 h, the solutions were filtered using a membrane harvester using multiple washing of the membranes (3×). The filter disks were counted in scintillation cocktail affording the amount of displacement of triated CPX or by the competitive binding compositions of this invention. In the case of the DDT1 cell membranes, some of the determinations of binding affinity (Ki) were made in the presence of Gpp(NH)p as noted in Table 1 (note: Gpp(NH)p shifts the receptor to a low affinity form). Greater than a 5 point curve was used to generate Ki's and the number of experiments is indicated in the column marked in Table 1 below.

A1 adenosine receptor = target: T2, A1 adenosine receptor (Mesocricetus auratus, UniProt A0A1U8BVR4); assay: [35S]GTPγS binding assay, A1-agonist stimulated; format: biochemical, hamster; details: […], agonist stimulated [35S]GTPγS binding, CPA = 100%
T2 construct: endogenous in cells; host or cells: DDT1 (DDT1 MF-2) hamster vas deferens smooth muscle cells
T2 sequence (A0A1U8BVR4 1-326): T1 sequence (A0A1U8BVR4 1-326)
Description: as §1, with “for assays. The protein content was determined by the method of Bradford (1976) using bovine serum albumin as standard.” for “for assays.”
A1-agonist stimulated [^35S]GTPγS binding was determined by a modification of the method described by Giersckik et al. (1991) and Lorenzen et al. (1993). […] Nonspecific binding was determined by the addition of 10 μM GTPγS. […] Previous reports have shown that agonist stimulated [^35S]GTPγS binding was dependent on the presence of GDP (Gierschik et al., 1991; Lorenzen et al., 1993; Traynor & Nahorski, 1995). […] In saturation experiments, 0.5 nM [^35S]GTPγS was incubated with 0.5-1000 nM GTPγS. At the end of the incubation, each suspension was filtered and the retained radioactivity determined as described above.

[1] = in presence of Gpp(NH)p (low affinity form), read-out: Ki - DDT1 cell membrane In presence of Gpp (NH)p
[2] = DDT1 cell membranes, read-out: Ki-DDT1 cell membrane

In the case of `CC(C)NC(=O)OCC1OC(n2cnc3c(N[C@@H]4CCOC4)ncnc32)C(O)C1O` (some centres unmarked) [Compound 32], the Ki (A1 receptor; [1]) is reported as 431 nM and the Emax (A1 adenosine receptor) is reported as 91%.
With `CCCNC(=O)OCC1OC(n2cnc3c(N[C@@H]4CCOC4)ncnc32)C(O)C1O` (some centres unmarked) [Compound 26] the Ki (A1 receptor; [1]) was 513 nM and the Emax (A1 adenosine receptor) was 73%.
With `O=C(NC1CCCCC1)OC[C@H]1O[C@@H](n2cnc3c(N[C@@H]4CCOC4)ncnc32)[C@H](O)[C@@H]1O` [Compound 31, {(5-{6-[((3R)oxolan-3-yl)amino]purin-9-yl}(3S,2R,4R,5R)3,4-dihydroxyoxolan-2-yl)methoxy]-N-cyclohexylcarboxamide] the Ki (A1 receptor; [1]) was 1090 nM.
With `O=C(NC1CC1)OCC1OC(n2cnc3c(N[C@@H]4CCOC4)ncnc32)C(O)C1O` (some centres unmarked) [Compound 33] the Ki (A1 receptor; [1]) was 1710 nM.
`CN(C)C(=O)OC[C@H]1O[C@@H](n2cnc3c(N[C@@H]4CCOC4)ncnc32)[C@H](O)[C@@H]1O` [Compound 44, {(5-{6-[((3R)oxolan-3-yl)amino]purin-9-yl}(3S,2R,4R,5R)-3,4-dihydroxyoxolan-2-yl)methoxy]-N,N-dimethylcarboxamide] was tested, and the Ki (A1 receptor; [1]) was 1840 nM.
Work on `CCNC(=O)NCC1OC(n2cnc3c(NC4CCOC4)ncnc32)C(O)C1O` [Compound 79, N-[(5-{16[((3R)oxolan-3-yl)amino]purin-9-yI}(3S,2R,4R,5R3,4-dihydroxyoxolan-2-yl)methyl](ethylamino)carboxamide] yielded a Ki (A1 receptor; [1]) of 167 nM.
`O=C(NCc1ccccc1)OC[C@H]1O[C@@H](n2cnc3c(N[C@@H]4CCOC4)ncnc32)[C@H](O)[C@@H]1O` [Compound 29, [(5-{6-[((3R)oxolan-3-yl)amino]purin-9-yl}(3S,2R,4R,5R)-3,4dihydroxyoxolan-2-yl)methoxy]-N-benzylcarboxamide] gave a Ki (A1 receptor; [1]) of 478 nM.
Compound `CNC(=O)SC[C@H]1O[C@@H](n2cnc3c(N[C@@H]4CCOC4)ncnc32)[C@H](O)[C@@H]1O` [Compound 22, [(5-{6-[((3R)oxolan-3-yl)amino]purin-9-yl}(2S,3S,4R,5R)-3,4&hydroxyoxolan-2-yl)methythio]-N-methylcarboxamide] has a Ki (A1 receptor; [2]) of 36 nM and an Emax (A1 adenosine receptor) of 98%.
Work on `CCCCNC(=O)OCC1OC(n2cnc3c(N[C@@H]4CCOC4)ncnc32)C(O)C1O` (some centres unmarked) [Compound 27] yielded a Ki (A1 receptor; [2]) of 1610 nM, a Ki (A1 receptor; [1]) of 111 nM and an Emax (A1 adenosine receptor) of 44%.
With `O=C(NC1CCCC1)SCC1OC(n2cnc3c(NC4CCOC4)ncnc32)C(O)C1O` [Compound 73, [(5-{6-[((3R)oxolan-3-yl)amino]purin-9-yl}(2S,3S,4R,5R)3,4-dihydroxyoxolan-2-yl)methythio]-N-cyclopentylcarboxamide] the Ki (A1 receptor; [2]) was 183 nM and the Emax (A1 adenosine receptor) was 109%.
In the case of `C=CCNC(=S)OCC1OC(n2cnc3c(N[C@@H]4CCOC4)ncnc32)C(O)C1O` (stereo partly drawn) [Compound 60, 2-{6-[((3R)oxolan-3-yl)amino]purin-9-yl}(4S,2R,3R,5R)-5-{[(prop-2-enylaminio)thioxomethoxy]methyl}oxolane3,4diol], the Ki (A1 receptor; [1]) is reported as 239 nM and the Emax (A1 adenosine receptor) is reported as 77%.
Work on `O[C@@H]1[C@H](O)[C@@H](COC(=S)NC2CCCC2)O[C@H]1n1cnc2c(N[C@@H]3CCOC3)ncnc21` [Compound 51, 2-{6-[((3R)oxolan-3-yl)amino]purin-9-yl}(4S,2R,3R,5R)-5{[(cyclopentylamino)thioxomethoxy]methyl}oxolane3,4-diol] yielded a Ki (A1 receptor; [1]) of 87 nM.
`O=C(NCc1ccc(F)cc1)OCC1OC(n2cnc3c(N[C@@H]4CCOC4)ncnc32)C(O)C1O` (some centres unmarked) [Compound 30] was tested, and the Ki (A1 receptor; [2]) was 2210 nM and the Ki (A1 receptor; [1]) was 1730 nM.
For `OC1C(CNC(=S)NC2CCCC2)OC(n2cnc3c(NC4CCOC4)ncnc32)C1O` [Compound 78, 2-{6-[((3R)oxolan-3-yl)amino]purin-9-yl}(4S,2R,3R,5R)-5-({[(cyclopentylamnino)thioxomethyl]amino}methyl)oxolane3,4diol], the Ki (A1 receptor; [2]) was 357 nM and the Emax (A1 adenosine receptor) was 95%.
`CNC(=S)NC[C@H]1O[C@@H](n2cnc3c(N[C@@H]4CCOC4)ncnc32)[C@H](O)[C@@H]1O` [Compound 77, 2-{6[((3R)oxolan-3-yl)amino]purin-9-yl}(4S,2R,3R,5R)5-({[(methylamino)thioxomethyl]amino}methyl)oxolane-3,4diol] was tested, and the Ki (A1 receptor; [2]) was 113 nM and the Emax (A1 adenosine receptor) was 101%.
For `O=C(O)CNC(=O)OC[C@H]1O[C@@H](n2cnc3c(N[C@@H]4CCOC4)ncnc32)[C@H](O)[C@@H]1O` [Compound 68, 2-{[(5-{6-[((3R)oxolan-3-yl)amino]purin-9-yl}(3S,2R,4R,5R)-3,4-dihydroxyoxolan-2-yl)methoxy]carbonylamino}acetic acid], the Emax (A1 adenosine receptor) was 76%.
`CCNC(=O)OC[C@H]1O[C@@H](n2cnc3c(N[C@@H]4CCOC4)ncnc32)[C@H](O)[C@@H]1O` [Compound 25, [(5-{6-[((3R)oxolan-3-yl)amino]purin-9-yl}(3S,2R,4R,5R)-3,4-dihydroxyoxolan-2-yl)methoxy]-N-ethylcarboxamide] was tested, and the Ki (A1 receptor; [1]) was 727 nM.
With `O=C(NC[C@H]1O[C@@H](n2cnc3c(N[C@@H]4CCOC4)ncnc32)[C@H](O)[C@@H]1O)NC1CCCC1` [Compound 76, N-[(5-{6[((3R)oxolan-3yl)amino]purin-9-yl}(3S,2R,4R,5R)3,4-dihydroxyoxolan-2-yl)methyl](cyclopentylamino)carboxamide] the Ki (A1 receptor; [2]) was 11600 nM.
In the case of `O[C@@H]1[C@H](O)[C@@H](CSC(=S)NC2CCCC2)O[C@H]1n1cnc2c(N[C@@H]3CCOC3)ncnc21` [Compound 75, 2-{6-[((3R)oxolan-3-yl)amino]purin-9-yl}(4S,5S,2R,3R)-5-{[(cyclopentylamino)thioxomethylthio]methyl}oxolane-3,4-diol], the Ki (A1 receptor; [2]) is reported as 62 nM and the Emax (A1 adenosine receptor) is reported as 91%.
`OC1C(COC(=S)NC2CCCCC2)OC(n2cnc3c(N[C@@H]4CCOC4)ncnc32)C1O` (some centres unmarked) [Compound 55] was tested, and the Ki (A1 receptor; [2]) was 252 nM, the Ki (A1 receptor; [1]) was 962 nM and the Emax (A1 adenosine receptor) was 82%.
`CNC(=O)OC[C@H]1O[C@@H](n2cnc3c(N[C@@H]4CCOC4)nc(Cl)nc32)[C@H](O)[C@@H]1O` [Compound 13, [(5-{6-[((3R)oxolan-3-yl)amino]-2-chloropurin-9-yl}(3S,2R,4R,5R)3,4dihydroxyoxolan-2-yl)methoxy]-N-methylcarboxamide] was tested, and the Ki (A1 receptor; [2]) was 129 nM and the Emax (A1 adenosine receptor) was 77%.
`O=C(NC1CCCC1)OCC1OC(n2cnc3c(N[C@@H]4CCOC4)ncnc32)C(O)C1O` (some centres unmarked) [Compound 28] was tested, and the Ki (A1 receptor; [2]) was 32 nM and the Ki (A1 receptor; [1]) was 808 nM.
`O=C(O)CCNC(=O)OCC1OC(n2cnc3c(N[C@@H]4CCOC4)ncnc32)C(O)C1O` (some centres unmarked) [Compound 67] was tested, and the Ki (A1 receptor; [2]) was 2220 nM and the Emax (A1 adenosine receptor) was 59%.
For `OC1C(COC(=S)NCc2ccccc2)OC(n2cnc3c(N[C@@H]4CCOC4)ncnc32)C1O` (some centres unmarked) [Compound 54], the Ki (A1 receptor; [1]) was 229 nM and the Emax (A1 adenosine receptor) was 93%.
